Experimental data published in patent publication US20120149026A1, “INSULIN RESISTANCE MARKER” (SHIMADZU CORPORATION, priority 2009, published 2012).

How the values were obtained:
Format in all cases: cell-based, mouse
[1] = tested on: proepithelin (aa297-309); test: Expression variation analysis of proepithelin protein by NBS method in insulin resistance-induced adipocytes; details: matured 3T3-L1 adipocytes; 4 ng/mL TNFα for four days or 20 nM dexamethazone for eight days; p-value <0.05
Method: Mouse 3T3-L1 cells (ATCC No. CCL-92.1.) were added with Dulbecco's modified Eagle's medium—low glucose (Wako Pure Chemical Industries, Ltd.), 10% bovine serum (GIBCO BRL), and a penicillin/streptomycin solution (GIBCO BRL), and cultured at 37° C. in 5% carbon dioxide.
After reaching confluent, the cells were further cultured for two days. Then the medium was replaced by a differentiation inducing medium. As the differentiation inducing medium, Dulbecco's modified Eagle's medium—high glucose (Wako Pure Chemical Industries, Ltd.) added with 10% fetal bovine serum, a penicillin/streptomycin solution (GIBCO BRL), 0.5 mM 1-methyl-3-isobutylxanthine, 1 μM dexamethazone, and 5 μg/mL insulin was used.
After three days, the medium was replaced by Dulbecco's modified Eagle's medium—high glucose (Wako Pure Chemical Industries, Ltd.), 10% fetal bovine serum, a penicillin/streptomycin solution (GIBCO BRL), and 5 μg/mL insulin, and cultured for two days. […]
For the obtained digests, a treatment was conducted according to the protocol of the NBS labeling kit, and the NBS-labeled peptide was concentrated. […] Comparative quantification analysis between 12C-NBS-labeled peptide and 13C-NBS-labeled peptide was conducted from the results obtained by automatic analysis of MALDI-TOF MS (AXIMA-CFR Plus; SHIMADZU CORPORATION) by using pair peak analyzing software (TWIP). […]

[2] = tested on: proepithelin protein; test: Analysis of proepithelin protein by Western blotting in insulin resistance-induced adipocytes; details: matured 3T3-L1 adipocytes; for expression amount of proepithelin protein relative to GADPH, increase versus control: 4 ng/mL TNFα for four days or 20 nM dexamethazone for eight days, p-value <0.05
Method: Using the matured adipocyte at the eighth or later day after the differentiation inducing treatment, the cells were cultured in an adipocyte maintenance medium added with 20 nM dexamethazone for eight days to induce insulin resistance, and an adipocyte in which insulin resistance was induced by dexamethazone was obtained. On the other hand, using the matured adipocyte at the eighth or later day after the differentiation inducing treatment, the cells were cultured for four days in an adipocyte maintenance medium added with 4 ng/mL TNFα to induce insulin resistance, and an adipocyte in which insulin resistance was induced by TNFα was obtained.
A matured adipocyte in which insulin resistance was induced by the method of Reference Example 2 was solubilized in a TNE buffer (1% (w/w) Nonidet P-40, 150 mM sodium chloride, 20 mM Tris-hydrochloride (pH 7.4), 2 mM EDTA, 10 μg/mL leupeptin, 10 μg/mL aprotinine, 5 mM mercaptoethanol, 1 mM: PMSF, 1 mM Na3VO4, 10 μM sodium molybdate, and 50 mM sodium fluoride), and a protein was extracted. The extracted protein was separated by SDS-polyacrylamide gel electrophoresis (SDS-PAGE), and then transferred to a polyvinylidene fluoride (PVDF) membrane or a nitrocellulose membrane. A goat anti-proepithelin antibody (R&D Systems) was used as a primary antibody, a rabbit anti-goat IgG HRP-labeled antibody (ZYMED) was used as a secondary antibody, and ECL Blotting Detection Reagents (GE Healthcare) were used for detection of an HRP-labeled antibody.
The result obtained in this example (analytical result of a proepithelin protein by the Western blotting method) is shown in FIG. 2. In FIG. 2A, the vertical axis represents a relative value of an expression amount of a proepithelin protein, relative to an expression amount of a house keeping protein GADPH, and for each of a control (Control), the adipocyte in which insulin resistance was induced by TNFα (TNFα), and the adipocyte in which insulin resistance was induced by dexamethazone (Dex), the relative value is shown (mean value±standard deviation (mean±S.D.), n=4, p-value: **<0.05). […]

[3] = tested on: phosphorylated Akt; test: Insulin signaling-suppressing action by constant presence of proepithelin protein (Akt phosphorylation, Western blotting); details: matured 3T3-L1 adipocytes; proepithelin 50, 100, 200 nM for 6 hours, then 100 nM insulin for 30 minutes; FIG. 7
Method: A matured adipocyte prepared according to the method of Reference Example 1 was added with a proepithelin protein (AdipoGen, Inc.) and incubated for 6 hours, and then added with 100 nM insulin and cultured for 30 minutes, or added with 100 nM insulin without addition of a proepithelin protein, and cultured for 30 minutes, to prepare an adipocytes stimulated by insulin (+100 nM Insulin). When the proepithelin protein was added, concentrations of the proepithelin protein were set at 50 nM, 100 nM, and 200 nM.
A matured adipocyte prepared according to the method of Reference Example 1 was added with a proepithelin protein (AdipoGen, Inc.) and cultured for 6 hours, or cultured for 30 minutes without addition of both insulin and a proepithelin protein, to prepare an adipocyte not stimulated with insulin (−Insulin). When the proepithelin protein was added, concentrations of the proepithelin protein were set at 50 nM, 100 nM, and 200 nM.
For each of the adipocyte stimulated by insulin (+100 nM Insulin) and the adipocyte not stimulated by insulin (−Insulin) obtained in the manner as described above, protein extraction and Western blotting were conducted in the same manner as in Example 6.

[4] = tested on: pAkt-Ser473; test: Effect of proepithelin protein on insulin signaling (Akt phosphorylation, Western blotting); details: matured 3T3-L1 adipocytes; proepithelin 10, 50, 100, 200 nM, cultured for 30 minutes, with or without 100 nM insulin; FIG. 6
Method: A matured adipocyte prepared according to the method of Reference Example 1 was added with 100 nM insulin and a proepithelin protein (AdipoGen, Inc.) and cultured for 30 minutes, or added with 100 nM insulin without addition of proepithelin protein and cultured for 30 minutes to prepare an adipocyte (+100 nM Insulin) stimulated by insulin. When the proepithelin protein was added, concentrations of the proepithelin protein were 10 nM, 50 nM, 100 nM, and 200 nM.
The obtained adipocyte stimulated by insulin was solubilized in an RIPA buffer {1% (W/w) Triton X-100, 1% sodium deoxycholate, 0.1% sodium dodecylsulfate, 150 mM sodium chloride, 20 mM Tris-hydrochloride (pH7.4), 2 mM EDTA, 10 μg/mL leupeptin, 10 μg/mL aprotinin, 5 mM mercaptoethanol, 1 mM PMSF, 1 mM Na3VO4, 10 μM sodium molybdate, 50 mM sodium fluoride}, and proteins were extracted.
The extracted proteins were subjected to the Western blotting method. Concretely, following separation by SDS-polyacrylamide gel electrophoresis (SOS-PAGE), the protein was transferred to a polyvinylidene fluoride (PVDF) membrane or a nitrocellulose membrane. […]

**Q.** With `C[C@@H]1C[C@H]2[C@@H]3CCC4=CC(=O)C=C[C@]4(C)[C@@]3(F)[C@@H](O)C[C@]2(C)[C@@]1(O)C(=O)CO` [dexamethazone] as the molecule, how does the “relative intensity of proepithelin (aa297-309) NBS-labeled peptide, insulin resistance adipocyte relative to normal adipocyte” value [1] read?
**A.** 3.01 times

**Q.** And the “expression amount of proepithelin protein relative to GADPH, increase versus control” value [2]?
**A.** 1.95 times

**Q.** With tumor necrosis factor α [TNFα] as the molecule, how does the “relative intensity of proepithelin (aa297-309) NBS-labeled peptide, insulin resistance adipocyte relative to normal adipocyte” value [1] read?
**A.** 1.66 times

**Q.** And the “expression amount of proepithelin protein relative to GADPH, increase versus control” value [2]?
**A.** 1.83 times

**Q.** And the “upregulation of proepithelin protein with varied inducer concentration” value ([2]; concentrations of TNFα (ng/ml) and dexamethazone (nM) changed, FIG. 3)?
**A.** dependent on the concentration

B1: proepithelin protein: epithelin precursor protein having seven kinds of epithelin domains; purchased from AdipoGen, Inc. (protein)
chain: MWTLVSWVALTAGLVAGTRCPDGQFCPVACCLDPGGASYSCCRPLLDKWPTTLSRHLGGPCQVDAHCSAGHSCIFTVSGTSSCCPFPEAVACGDGHHCCPRGFHCSADGRSCFQRSGNNSVGAIQCPDSQFECPDFSTCCVMVDGSWGCCPMPQASCCEDRVHCCPHGAFCDLVHTRCITPTGTHPLAKKLPAQRTNRAVALSSSVMCPDARSRCPDGSTCCELPSGKYGCCPMPNATCCSDHLHCCPQDTVCDLIQSKCLSKENATTDLLTKLPAHTVGDVKCDMEVSCPDGYTCCRLQSGAWGCCPFTQAVCCEDHIHCCPAGFTCDTQKGTCEQGPHQVPWMEKAPAHLSLPDPQALKRDVPCDNVSSCPSSDTCCQLTSGEWGCCPIPEAVCCSDHQHCCPQGYTCVAEGQCQRGSEIVAGLEKMPARRASLSHPRDIGCDQHTSCPVGQTCCPSLGGSWACCQLPHAVCCEDRQHCCPAGYTCNVKARSCEKEVVSAQPATFLARSPHVGVKDVECGEGHFCHDNQTCCRDNRQGWACCPYRQGVCCADRRHCCPAGFRCAARGTKCLRREAPRWDAPLRDPALRQLL
modifications: human
**Q.** Which “phosphorylation level of an Akt protein after preliminary treatment” value [3] does the source give for B1 here?
**A.** decreased

**Q.** What about the “phosphorylation level at 473th serine in the Akt protein” value [4] of the same molecule?
**A.** increased with the concentration of added proepithelin
